In paper PMC9764201, “Half-calcified calmodulin promotes basal activity and inactivation of the L-type calcium channel CaV1.2” (The Journal of Biological Chemistry, 2022):

System: CaV1.2
Assay: Whole-cell patch clamp of CaV1.2 variants in HEK 293T/17 cells
Type: cell-based, rat
Conditions: interleaved WT, mean±SEM; for Imax Ba2+ (peak current density) / Imax Ba2+ (r300): 10 mM Ba^2+; for Imax Ba2+ (peak current density): 0 mV; for Imax Ca2+ (peak current density) / Imax Ca2+ (r300): 10 mM Ca^2+; for Imax Ca2+ (peak current density): +20 mV; for VDI300: 1-(Ba300/Bamax); for netCDI300: 1-(Ca300/Camax)/(Ba300/Bamax); for Imax Ba2+ (r300) / Imax Ca2+ (r300): fraction of maximal current remaining after 300 ms
Protocol: HEK 293T/17 cells (ATCC) were maintained as previously described ([15], [53]). For electrophysiology, Lipofectamine 2000 (Invitrogene) or JetPrime (Polyplus Transfection) was used to transiently transfect cells with indicated plasmid DNAs in 35 mm dishes. For biochemistry experiments, transient transfection of HEK 293T/17 cells in […] dishes was achieved using either JetPrime or, as previously described ([15], [53]), the calcium phosphate method. Cells were cotransfected with plasmids encoding the pore-forming α11.2 subunit N-terminally tagged with eCFP ([15], [53]) or mCherry ([54]) plus pGWIH-based plasmids encoding the auxiliary subunits rat β2A ([55]) and rabbit α2δ-1 ([56]) as previously described ([15], [53]). For all transfections, equimolar ratio of 1:1:1 was used for CaV1.2 channel subunits and later further optimized (JetPrime) for CaM (at ratio of 1:1:1:0.5 for α11.2:β2A:α2δ−1:CaM). Rat brain α11.2 (GenBank ID: M67515.1) N-terminally fused to eCFP was utilized as previously described ([15]). The point mutations in plasmids encoding single-residue I1654A, Y1657D (this report), and K1662E exchanges in α11.2 were generated via QuikChange II as previously described ([15], [53]) using N-terminally eCFP ([15], [53]) or mCherry tagged ([54]) rat brain α11.2 plasmid template DNAs. We studied CDI using mCherry-tagged α11.2 subunit coexpressed with the other, untagged CaV1.2 subunits and WT CaM or the calmodulin 34 mutant CaM34 (kindly provided by JP Adelman, ([8])). For some biochemical experiments shown in Fig. S2, YFP-tagged CaM was used ([32]).
Macroscopic Ba^2+- (IBa) and Ca^2+ currents (ICa) of CaV1.2 L-type Ca^2+ channels were obtained in the whole-cell configuration using external bath solution containing (in mM) 134 N-methyl-D-glucamine, 10 BaCl2 (for CDI, 10 CaCl2), 1 MgCl2, 10 Hepes, and 10 glucose with an adjusted pH of 7.4 (Cs-OH) and an osmolarity of 300 to 310 mOsm (sucrose). Intracellular pipette solution contained (in mM) 125 Cs-MeSO3, 5 CsCl, 10 EGTA, 10 Hepes, 1 MgCl2, 4 Mg-ATP, and pH 7.3 (CsOH), mOsm 290 to 300 (sucrose). Cells were clamped at a holding potential of -80 mV and depolarized for 900 ms to a series of activating potentials, from −60 mV to +50 mV (or +80 mV for Ca^2+ currents), in increments of 10 mV at an interval of 0.033 Hz. The series resistance and the cell capacitance were directly taken from the Amplifier (Axopatch 200B, Molecular Device) and compensated to ∼40%. Data were sampled at 10 kHz and lowpass filtered at 2 kHz. Leak subtracted raw data were analyzed with Pclamp10 and GraphPad Prism IX software. All recordings were performed at room temperature (RT).
Table S1. HEK 293T/17 cells were transiently transfected with eCFP-tagged rat CaV1.2 (WT versus I1654A and K1662E or versus Y1657D) plus α2δ1 and β2a and whole cell current recorded (see Fig. 3 for more details).
Panel A. Peak current density from I/V curves of whole-cell recordings. Imax values were determined at +20 mV for Ca2+ and 0 mV for Ba2+.
Panel B. r300 values and quantification of CDI and VDI. Whole-cell currents remaining after 300 ms of depolarization (r300) are given as fraction of maximal currents based on values in A. Net CDI was calculated as the ratiometric value net 1-(Ca300/Camax)/(Ba300/Bamax) and VDI as 1- […]
For each panel: Top: Analysis of interleaved recordings of CaV1.2 WT versus I1654A and K1662E IQ- mutants (one-way ANOVA with a Bonferroni post-hoc test; *p<0.05, **p<0.01 and ***p<0.001 and ****p<0.0001). Bottom: Analysis of interleaved recordings of CaV1.2 WT versus Y1657D IQ-mutant CaV1.2 (unpaired T-Test, *p<0.05 and ****p<0.0001). […]
mean±SEM and numbers in parentheses (n) are independent experiments.
IQ-variant ImaxCa2+(pA/pF) ImaxBa2+(pA/pF) p-value

Substance: CaV1.2: WT rat brain α11.2 with α2δ1 and β2A expressed in HEK 293T/17 cells
- Imax Ba2+ (peak current density) (I1654A, K1662E): 46.7±9.1 pA/pF
- Imax Ba2+ (peak current density) (Y1657D): 21.8±4 pA/pF
- Imax Ca2+ (peak current density) (I1654A, K1662E): 18.3±4.2 pA/pF
- Imax Ca2+ (peak current density) (Y1657D): 16.4±2.1 pA/pF
- VDI300 (I1654A, K1662E): 0.19±0.02
- VDI300 (Y1657D): 0.17±0.02
- netCDI300 (I1654A, K1662E): 0.59±0.04
- netCDI300 (Y1657D): 0.61±0.03
- Imax Ba2+ (r300) (I1654A, K1662E): 0.81±0.02
- Imax Ba2+ (r300) (Y1657D): 0.83±0.02
- Imax Ca2+ (r300) (I1654A, K1662E): 0.33±0.03
- Imax Ca2+ (r300) (Y1657D): 0.32±0.03
